Assay results: patent US11384060B2, “Amide compounds and use thereof” (ALPHALA CO., LTD., priority 2017, dated 2022)
Where two headings read alike, the source gives them in different places.

Key:
[1] = target: T1, glucagon receptor (GCGR) overexpressed CHO-K1 cells or human primary hepatocytes (Homo sapiens, UniProt P47871); assay: Glucagon cAMP inhibition assay (Cisbio cAMP Dynamic 2 HTRF); format: cell-based
T1 construct: expressed in transfected cells; host or cells: GCGR overexpressed CHO-K1 cells or human primary hepatocytes (endogenous receptor)
Method in brief: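 GCGR-overexpressing CHO-K1 cells or human primary hepatocytes in HBSS with 0.1% BSA and 800 nM IBMX, pre-incubated 30 min with serially diluted compounds (1% DMSO final), then stimulated 30 min at room temperature with glucagon at its EC50. cAMP measured by HTRF after 60 min lysis; IC50 by non-linear regression.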

[2] = target: T2, glucagon receptor (GCGR) (Homo sapiens, UniProt P47871); assay: I125-glucagon binding assay (competition, GCGR membrane fractions)
T2 construct: expressed in transfected cells; host or cells: CHO-K1 cells overexpressing GCGR (membrane fractions)
Method in brief: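 Membranes from CHO-K1 cells overexpressing GCGR, 7.5 μg/well in 50 mM Tris pH 7.4 with 0.5% BSA, were preincubated 5 min with serially diluted compounds, then given 0.0625 nM final I^125-glucagon for 30 min at 25° C. Bound label was filtered on PEI-coated GF/B and counted; IC50 by non-linear regression.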

[3] = inhibition of glucagon (EC50 concentration) induced cAMP production
[4] = competition with I125-glucagon 0.0625 nM, membrane fractions of GCGR overexpressed CHO-K1 cells

T1 sequence (P47871 26-477): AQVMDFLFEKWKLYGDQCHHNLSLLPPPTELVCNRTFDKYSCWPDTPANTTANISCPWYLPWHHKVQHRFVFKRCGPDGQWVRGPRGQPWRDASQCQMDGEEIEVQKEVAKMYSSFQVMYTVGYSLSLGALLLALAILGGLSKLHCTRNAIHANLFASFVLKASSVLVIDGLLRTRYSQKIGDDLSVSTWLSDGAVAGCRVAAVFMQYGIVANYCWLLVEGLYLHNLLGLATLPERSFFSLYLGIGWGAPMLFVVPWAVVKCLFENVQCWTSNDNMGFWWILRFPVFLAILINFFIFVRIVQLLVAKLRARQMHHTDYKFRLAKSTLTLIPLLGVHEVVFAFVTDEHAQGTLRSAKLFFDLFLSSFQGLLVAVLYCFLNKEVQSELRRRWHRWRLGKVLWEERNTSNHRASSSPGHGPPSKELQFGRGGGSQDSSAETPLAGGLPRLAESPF
T2 sequence (P47871 26-477): as above

Row | IC50 cAMP [1, 3] [nM] | IC50 [2, 4] [µM] | IC50 cAMP [1] [nM] | IC50 [2] [µM] | IC50 ([2]; uM) [µM] | Structure (SMILES)
1 |  |  | >30000 | 4.86 |  | Cc1cc(C)c(-c2ccc(C[C@H](Nc3ccc(C(=O)NCCC(=O)O)cc3)c3nnc(-c4ccc(C(C)(C)C)cc4)o3)cc2)c(C)c1 [Compound 20-5, (S)-3-(4-((1-(5-(4-(tert-butyl)phenyl)-1,3,4-oxadiazol-2-yl)-2-(2′,4′,6′-trimethyl-[1,1′-biphenyl]-4-yl)ethyl)amino)benzamido)propanoic Acid]
2 |  |  | 1788 | 0.763 |  | CCCOC[C@H](Cc1ccc(-c2ccc(C(C)(C)C)cc2)cc1)Nc1ccc(C(=O)NCCC(=O)O)cc1 [Compound 19-12, (S)-3-(4-((1-(4′-(tert-butyl)-[1,1′-biphenyl]-4-yl)-3-propoxypropan-2-yl)amino)benzamido)propanoic Acid]
3 |  |  | 429.9 | 0.207 |  | Cc1nc(OC[C@H](CC(C)C)Nc2ccc(C(=O)NCCC(=O)O)cc2)ccc1-c1cc2ccccc2o1 [Compound 18-9, (S)-3-(4-((1-((5-(benzofuran-2-yl)-6-methylpyridin-2-yl)oxy)-4-methylpentan-2-yl)amino)benzamido)propanoic Acid]
4 |  |  | 787 | 0.444 |  | CCCOC[C@H](Cc1ccc(-c2ccc(OC(F)(F)F)cc2)cc1)Nc1ccc(C(=O)NCCC(=O)O)cc1 [Compound 19-14, (S)-3-(4-((1-propoxy-3-(4′-(trifluoromethoxy)-[1,1′-biphenyl]-4-yl)propan-2-yl)amino)benzamido)propanoic Acid]
5 |  |  | 1082 | 0.163 |  | CC(C)C[C@H](Cc1ccc(-c2cc3ccccc3o2)cc1)Nc1ccc(C(=O)NCCC(=O)O)cc1 [Compound 19-5, (R)-3-(4-((1-(4-(benzofuran-2-yl)phenyl)-4-methylpentan-2-yl)amino)benzamido)propanoic Acid]
6 |  |  | >30000 | 1.31 |  | CC(C)C[C@@H](COc1ccc(-c2ccc(C(F)(F)F)cc2Cl)cn1)Nc1ccc(C(=O)NCCS(=O)(=O)O)cc1 [Compound 15-18]
7 |  |  | >30000 | 3.3 |  | CC(C)[C@@H](COc1ccc(-c2ccc(C(F)(F)F)cc2)cn1)Nc1ccc(C(=O)NC[C@@H](O)C(=O)O)cc1 [Compound 15-8, (R)-2-hydroxy-3-(4-(((S)-3-methyl-1-((5-(4-(trifluoromethyl)phenyl)pyridin-2-yl)oxy)butan-2-yl)amino)benzamido)propanoic Acid]
8 |  |  | 986.5 | 0.745 |  | CCCOC[C@H](Cc1ccc(-c2ccc(C(F)(F)F)cc2)cc1)Nc1ccc(C(=O)NCCC(=O)O)cc1 [Compound 19-22, (S)-3-(4-((1-propoxy-3-(4′-(trifluoromethyl)-[1,1′-biphenyl]-4-yl)propan-2-yl)amino)benzamido)propanoic Acid]
9 |  |  | 5800 |  | > 10 | CCOC(=O)CCNC(=O)c1ccc(N[C@@H](Cc2ccccc2)C(=O)Nc2ccc(C(F)(F)F)cc2)cc1 [Compound 24-5, Ethyl (S)-3-(4-((1-oxo-3-phenyl-1-((4-(trifluoromethyl)phenyl)amino)propan-2-yl)amino)benzamido)propanoate]
10 |  |  | 151 | 0.165 |  | CC[C@H](C)[C@@H](COc1ccc(-c2ccc(Cl)cc2Cl)c(C)n1)Nc1ccc(C(=O)NCCC(=O)O)cc1 [Compound 18-5, 3-(4-(((2S,3S)-1-((5-(2,4-dichlorophenyl)-6-methylpyridin-2-yl)oxy)-3-methylpentan-2-yl)amino)benzamido)propanoic Acid]
11 |  |  | 208 |  | > 10 | CCOC(=O)CCNC(=O)c1ccc(N[C@H](Cc2ccccc2)C(=O)Nc2ccc(C(F)(F)F)cc2)cc1 [Compound 24-3, Ethyl (R)-3-(4-((1-oxo-3-phenyl-1-((4-(trifluoromethyl)phenyl)amino)propan-2-yl)amino)benzamido)propanoate]

Continued, molecule first:

Row | Structure (SMILES) | IC50 cAMP [1, 3] [nM] | IC50 [2, 4] [µM] | IC50 cAMP [1] [nM] | IC50 [2] [µM] | IC50 ([2]; uM) [µM]
12 | COC(=O)CCNC(=O)c1ccc(N[C@H](COc2ccc(-c3nc4ccccc4s3)cc2)C(C)C)cc1 [Compound 1-31, Methyl (S)-3-(4-((1-(4-(benzo[d]thiazol-2-yl)phenoxy)-3-methylbutan-2-yl)amino)benzamido)propanoate] | 83 | 5.77 |  |  | 
13 | CCOC(=O)CCNC(=O)c1ccc(N[C@H](COc2ccc(-c3nc4ccccc4s3)cc2)C(C)C)cc1 [Compound 1-30] | 1214 | 7.63 |  |  | 
14 | CCCC[C@@H](COc1ccc(-c2ccc(C(F)(F)F)cc2)c(OC)c1)Nc1ccc(C(=O)NCCC(=O)O)cc1 [Compound 13-11, (S)-3-(4-((1-((2-methoxy-4′-(trifluoromethyl)-[, 1′-biphenyl]-4-yl)oxy)hexan-2-yl)amino)benzamido)propanoic Acid] | 118 | 0.047 |  |  | 
15 | COc1cc(OC[C@@H](Nc2ccc(C(=O)NCCC(=O)O)cn2)C(C)C)ccc1-c1cc2ccccc2o1 [Compound 14-1, (S)-3-(6-((1-(4-(benzofuran-2-yl)-3-methoxyphenoxy)-3-methylbutan-2-yl)amino)nicotinamido)propanoic Acid] | 1232 | 0.75 |  |  | 
16 | CCCC[C@@H](COc1ccc(-c2nnc(-c3ccccc3)o2)cc1)Nc1ccc(C(=O)NCCC(=O)O)cc1 [Compound 1-50, (S)-3-(4-((1-(4-(5-phenyl-1,3,4-oxadiazol-2-yl)phenoxy)hexan-2-yl)amino)benzamido)propanoic Acid] | 1622 | 0.715 |  |  | 
17 | CC[C@H](C)[C@@H](COc1ccc(-c2nnc(C(C)(C)C)o2)cc1)Nc1ccc(C(=O)NCCC(=O)O)cc1 [Compound 1-45, 3-(4-(((2S,3S)-1-(4-(5-(tert-butyl)-1,3,4-oxadiazol-2-yl)phenoxy)-3-methylpentan-2-yl)amino)benzamido)propanoic Acid] | 11981 | 1.52 |  |  | 
18 | CCCC[C@@H](COc1ccc(-c2ccc(C(F)(F)F)cc2Cl)cc1)Nc1ccc(C(=O)NCc2nnn[nH]2)cc1 [Compound 1-20, (S)—N-((1H-tetrazol-5-yl)methyl)-4-((1-((2′-chloro-4′-(trifluoromethyl)-[1,1′-biphenyl]-4-yl)oxy)hexan-2-yl)amino)benzamide] | 524 | 0.096 |  |  | 
19 | CC(C)[C@@H](COc1ccc(-c2ccc(C(F)(F)F)cc2Cl)cc1)Nc1ccc(C(=O)NCCC(=O)O)cc1 [Compound 1-22, (S)-3-(4-((1-((2′-chloro-4′-(trifluoromethyl)-[1,1′-biphenyl]-4-yl)oxy)-3-methylbutan-2-yl)amino)benzamido)propanoic Acid] | 14.2 | 0.07 |  |  | 
20 | CC[C@H](C)[C@@H](COc1ccc(-c2ccc(C(F)(F)F)cc2Cl)c(F)c1)Nc1ccc(C(=O)NCCC(=O)O)cc1 [Compound 8-8, 3-(4-(((2S,3S)-1-((2′-chloro-2-fluoro-4′-(trifluoromethyl)-[1,1′-biphenyl]-4-yl)oxy)-3-methylpentan-2-yl)amino)benzamido)propanoic Acid] | 500 | 0.277 |  |  | 
21 | CC(C)C[C@@H](COc1ccc(-c2ccc(C(F)(F)F)cc2)nc1)Nc1ccc(C(=O)NCCC(=O)O)cc1 [Compound 10-17, (S)-3-(4-((4-methyl-1-((6-(4-(trifluoromethyl)phenyl)pyridin-3-yl)oxy)pentan-2-yl)amino)benzamido)propanoic Acid] | 847 | 0.542 |  |  | 
22 | CC(C)[C@@H](CSc1ccc(-c2cc3ccccc3o2)cc1)Nc1ccc(C(=O)NCCC(=O)O)cc1 [Compound 5-1, (S)-3-(4-((1-((4-(benzofuran-2-yl)phenyl)thio)-3-methylbutan-2-yl)amino)benzamido)propanoic Acid] | 14405 | 2.04 |  |  | 
23 | CC[C@H](C)[C@@H](COc1ccc(-c2ccc(Cl)cc2Cl)c(OC)c1)Nc1ccc(C(=O)NCCC(=O)O)cc1 [Compound 13-2, 3-(4-(((2S,3S)-1-((2′,4′-dichloro-2-methoxy-[1,1′-biphenyl]-4-yl)oxy)-3-methylpentan-2-yl)amino)benzamido)propanoic Acid] | 254 | 0.092 |  |  | 
24 | CC(C)[C@@H](COc1ccc(-c2cc3ccccc3o2)c(F)c1)Nc1ccc(C(=O)NCCC(=O)O)cc1 [Compound 8-3, (S)-3-(4-((1-(4-(benzofuran-2-yl)-3-fluorophenoxy)-3-methylbutan-2-yl)amino)benzamido)propanoic Acid] | 84.4 | 0.083 |  |  | 
25 | CC(C)C[C@@H](COc1ccc(-c2ccc(Cl)cc2Cl)c(F)c1)Nc1ccc(C(=O)NCCC(=O)O)cc1 [Compound 8-19, (S)-3-(4-((1-((2′,4′-dichloro-2-fluoro-[1,1′-biphenyl]-4-yl)oxy)-4-methylpentan-2-yl)amino)benzamido)propanoic Acid] | 182 | 0.101 |  |  | 
26 | CC(C)(C)[C@@H](COc1ccc(-c2cc3ccccc3o2)c(F)c1)Nc1ccc(C(=O)NCCC(=O)O)cc1 [Compound 8-21, (S)-3-(4-((1-(4-(benzofuran-2-yl)-3-fluorophenoxy)-3,3-dimethylbutan-2-yl)amino)benzamido)propanoic Acid] | 181 | 0.111 |  |  | 
27 | CC[C@H](C)[C@@H](COc1cc(Cl)c(-c2cc3ccccc3o2)cc1Cl)Nc1ccc(C(=O)NCCC(=O)O)cc1 [Compound 3-19, 3-(4-(((2S,3S)-1-(4-(benzofuran-2-yl)-2,5-dichlorophenoxy)-3-methylpentan-2-yl)amino)benzamido)propanoic Acid] | 130 | 0.064 |  |  | 
